US10654834B2 (Venenum Biodesign, LLC, priority 2016, dated 2020)

Assays:
[1] = target: T1, human TGR5 receptor (Homo sapiens, UniProt Q8TDU6); experiment: Human TGR5 cAMP production assay (hTGR5-CHO cells, DiscoveRx cAMP XS+ kit); format: cell-based; conditions: luminescent cAMP assay, read-out: Human TGR5 Lum. cAMP Activity (EC50)
T1 construct: host or cells: CHO-K1 (hTGR5-CHO)
T1 sequence (Q8TDU6 1-330): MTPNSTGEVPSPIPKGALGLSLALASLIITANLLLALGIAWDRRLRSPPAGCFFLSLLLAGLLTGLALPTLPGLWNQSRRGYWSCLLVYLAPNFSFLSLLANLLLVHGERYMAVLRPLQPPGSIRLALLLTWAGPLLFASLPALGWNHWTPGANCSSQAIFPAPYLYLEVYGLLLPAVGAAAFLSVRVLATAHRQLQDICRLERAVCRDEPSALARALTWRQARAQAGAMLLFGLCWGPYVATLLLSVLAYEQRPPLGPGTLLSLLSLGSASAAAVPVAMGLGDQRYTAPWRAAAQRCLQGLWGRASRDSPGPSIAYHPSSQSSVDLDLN
How it was run: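 CHO-K1 cells stably expressing hTGR5, in PBS with IBMX and cAMP antibody, treated with half-log compound dilutions for 1 h at room temperature. cAMP measured by enzyme-fragment complementation luminescence after overnight detection; EC50 values reported.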

[2] = test system: Mouse STC-1 cells; experiment: STC-1 GLP-1 assay (GLP-1 secretion); format: cell-based; conditions: Mouse STC-1 cells, GLP-1 secretion, 2 h; read-out: Mouse STC-1 HTRF GLP-1 Activity (EC50)
How it was run: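 Mouse STC-1 cells were plated two days ahead in DMEM with 10% charcoal-dextran stripped FBS, then exposed to compound in HBSS with protease inhibitors, DPP-IV inhibitor and 0.1% fatty acid free BSA for 2 h at 37° C. Active GLP-1 in supernatant was quantified by HTRF; EC50 derived from 12-point half-log curves.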

N#Cc1ccc(CCNC(=O)[C@@H]2CCCN2c2cc(N3CCC(CO)CC3)nc(C(F)(F)F)n2)cc1 [Compound 1, (S)—N-(4-cyanophenethyl)-1-(6-(4-(hydroxymethyl)piperidin-1-yl)-2-(trifluoromethyl)pyrimidin-4-yl)pyrrolidine-2-carboxamide] showed an EC50 [1] of under 0.1 µM and an EC50 [2] of 0.1 to 0.999 µM.

N#Cc1ccc(CCNC(=O)[C@@H]2CCCN2c2cc(N3CCC(CCCC(=O)NCP(=O)(O)O)CC3)nc(C(F)(F)F)n2)cc1 [Compound 64, (S)-((4-(1-(6-(2-((4-cyanophenethyl)carbamoyl)pyrrolidin-1-yl)-2-(trifluoromethyl)pyrimidin-4-yl)piperidin-4-yl)butanamido)methyl)-phosphonic acid] gave an EC50 [1] of under 0.1 µM and an EC50 [2] of 0.1 to 0.999 µM.

N#Cc1ccc(CCNC(=O)[C@@H]2CCCN2c2cc(N3CCC(CCCC(=O)NCS(=O)(=O)O)CC3)nc(C(F)(F)F)n2)cc1 [Compound 66, (S)-(4-(1-(6-(2-((4-cyanophenethyl)carbamoyl)pyrrolidin-1-yl)-2-(trifluoromethyl)pyrimidin-4-yl)piperidin-4-yl)butanamido)-methanesulfonic acid] gave an EC50 [1] of under 0.1 µM and an EC50 [2] of under 0.1 µM.

N#Cc1ccc(CCNC(=O)[C@@H]2CCCN2c2cc(N3CCC(CCCC(=O)NCC(N)=O)CC3)nc(C(F)(F)F)n2)cc1 [Compound 68, (S)-1-(6-(4-(4-((2-amino-2-oxoethyl)amino)-4-oxobutyl)piperidin-1-yl)-2-(trifluoromethyl)pyrimidin-4-yl)-N-(4-cyanophenethyl)pyrrolidine-2-carboxamide] was tested, and the EC50 [1] was under 0.1 µM and the EC50 [2] was 0.1 to 0.999 µM.

In the case of N#Cc1ccc(CCNC(=O)[C@@H]2CCCN2c2cc(N3CCC(CCCC(=O)N[C@@H](CCCNC(=N)N)C(=O)O)CC3)nc(C(F)(F)F)n2)cc1 [Compound 72, (S)-2-(4-(1-(6-((S)-2-((4-cyanophenethyl)carbamoyl)pyrrolidin-1-yl)-2-(trifluoromethyl)pyrimidin-4-yl)piperidin-4-yl)butanamido)-5-guanidinopentanoic acid], the EC50 [1] is reported as under 0.1 µM and the EC50 [2] is reported as 0.1 to 0.999 µM.

N#Cc1ccc(CCNC(=O)[C@@H]2CCCN2c2cc(N3CCC(CCCC(=O)N[C@@H](CCC(=O)O)C(=O)O)CC3)nc(C(F)(F)F)n2)cc1 [Compound 76, (S)-2-(4-(1-(6-((S)-2-((4-cyanophenethyl)carbamoyl)pyrrolidin-1-yl)-2-(trifluoromethyl)pyrimidin-4-yl)piperidin-4-yl)butanamido)-pentanedioic acid] showed an EC50 [1] of under 0.1 µM and an EC50 [2] of 0.1 to 0.999 µM.

Compound N#Cc1ccc(CCNC(=O)[C@@H]2CCCN2c2cc(N3CCC(CCNC(=O)NCCS(=O)(=O)O)CC3)nc(C(F)(F)F)n2)cc1 [Compound 78, (S)-2-(3-(2-(1-(6-(2-((4-cyanophenethyl)carbamoyl)pyrrolidin-1-yl)-2-(trifluoromethyl)pyrimidin-4-yl)piperidin-4-yl)ethyl)ureido)ethanesulfonic acid] has an EC50 [1] of under 0.1 µM and an EC50 [2] of under 0.1 µM.

N#Cc1ccc(CCNC(=O)[C@@H]2CCCN2c2cc(N3CCC(CCNC(=O)NCCS(N)(=O)=O)CC3)nc(C(F)(F)F)n2)cc1 [Compound 80, (S)-N-(4-cyanophenethyl)-1-(6-(4-(2-(3-(2-sulfamoylethyl)ureido)-ethyl)piperidin-1-yl)-2-(trifluoromethyl)pyrimidin-4-yl)pyrrolidine-2-carboxamide] was tested, and the EC50 [1] was under 0.1 µM and the EC50 [2] was 0.1 to 0.999 µM.

In the case of N#Cc1ccc(CCNC(=O)[C@@H]2CCCN2c2cc(N3CCC(CCNC(=O)NCCC(=O)O)CC3)nc(C(F)(F)F)n2)cc1 [Compound 81, (S)-3-(3-(2-(1-(6-(2-((4-cyanophenethyl)carbamoyl)pyrrolidin-1-yl)-2-(trifluoromethyl)pyrimidin-4-yl)piperidin-4-yl)ethyl)ureido)-propanoic acid], the EC50 [1] is reported as under 0.1 µM and the EC50 [2] is reported as 0.1 to 0.999 µM.

Compound O=C(NCCC1CCN(c2cc(N3CCC[C@H]3C(=O)NCCc3ccc(C(F)(F)F)cc3)nc(C(F)(F)F)n2)CC1)NCCS(=O)(=O)O [Compound 86, (S)-2-(3-(2-(1-(2-(trifluoromethyl)-6-(2-((4-(trifluoromethyl)phenethyl)-carbamoyl)pyrrolidin-1-yl)pyrimidin-4-yl)piperidin-4-yl)ethyl)ureido)-ethanesulfonic acid] has an EC50 [1] of under 0.1 µM and an EC50 [2] of under 0.1 µM.

Work on N#Cc1ccc(CCNC(=O)[C@@H]2CCCN2c2cc(N3CCC(COCC(=O)O)CC3)nc(C(F)(F)F)n2)cc1 [Compound 88, (S)-2-((1-(6-(2-((4-cyanophenethyl)carbamoyl)pyrrolidin-1-yl)-2-(trifluoromethyl)pyrimidin-4-yl)piperidin-4-yl)methoxy)acetic acid] yielded an EC50 [1] of 0.1 to 0.999 µM and an EC50 [2] of 0.1 to 0.999 µM.

Compound CS(=O)(=O)NCCNC(=O)CCCC1CCN(c2cc(N3CCC[C@H]3C(=O)NCCc3ccc(C(F)(F)F)cc3)nc(C(F)(F)F)n2)CC1 [Compound 91, (S)-1-(6-(4-(4-((2-(methylsulfonamido)ethyl)amino)-4-oxobutyl)piperidin-1-yl)-2-(trifluoromethyl)pyrimidin-4-yl)-N-(4-(trifluoromethyl)phenethyl)pyrrolidine-2-carboxamide] has an EC50 [1] of under 0.1 µM and an EC50 [2] of under 0.1 µM.

CS(=O)(=O)NCCNC(=O)CCCC1CCN(c2cc(N3CCC[C@H]3C(=O)NCCc3ccc(C#N)cc3)nc(C(F)(F)F)n2)CC1 [Compound 93] was tested, and the EC50 [1] was under 0.1 µM and the EC50 [2] was under 0.1 µM.

O=C(CCCC1CCN(c2cc(N3CCC[C@H]3C(=O)NCCc3ccc(C(F)(F)F)cc3)nc(C(F)(F)F)n2)CC1)NCCNc1ncnc2c1ncn2[C@@H]1O[C@H](CO)C(O)C1O (stereo partly drawn) [Compound 96, (2S)-1-(6-(4-(4-((2-((9-((2R,5R)-3,4-dihydroxy-5-(hydroxymethyl)-tetrahydrofuran-2-yl)-9H-purin-6-yl)amino)ethyl)amino)-4-oxobutyl)piperidin-1-yl)-2-(trifluoromethyl)-pyrimidin-4-yl)-N-(4-(trifluoromethyl)-phenethyl)-pyrrolidine-2-carboxamide] was tested, and the EC50 [1] was under 0.1 µM and the EC50 [2] was under 0.1 µM.

Work on N#Cc1ccc(CCNC(=O)[C@@H]2CCCN2c2cc(N3CCC(CCCC(=O)NCCNc4cc(C(=O)O)ncn4)CC3)nc(C(F)(F)F)n2)cc1 [Compound 101, (S)-6-((2-(4-(1-(6-(2-((4-cyanophenethyl)carbamoyl)pyrrolidin-1-yl)-2-(trifluoromethyl)pyrimidin-4-yl)piperidin-4-yl)butanamido)ethyl)amino)-pyrimidine-4-carboxylic acid] yielded an EC50 [1] of under 0.1 µM and an EC50 [2] of under 0.1 µM.
